In publication PMC5614982, “Impact of Gastric H^+/K^+-ATPase rs2733743 on the Intragastric pH-Values of Dexlansoprazole Injection in Chinese Subjects” (Frontiers in Pharmacology, 2017):

Experiment: Pharmacokinetics of dexlansoprazole injection after single intravenous infusion in healthy Chinese subjects
Format: in vivo, human
Conditions: for Vd / clearance / half-life: iv
Procedure: Dexlansoprazole injection (30 mg per vial) used in the PK and PD study was manufactured by Nanjing Yoko Pharma Co., Ltd. (Nanjing, China). Subjects received an intravenous infusion of 20 or 30 mg dexlansoprazole injection in sterile saline solution (100 mL/h, 60 min). The study drug was administrated with an infusing pump (SA213, Lifepum, Beijing, China) and given through an intravenous catheter in the antecubital vein opposite to the one from which blood samples were taken.
To determine the pharmacokinetic properties of dexlansoprazole injection in human, a series of venous blood samples (5 mL) were collected in heparinized tubes at 0 (pre-dose), 10, 20, 40, 60, and 75 min, 1.5, 2, 2.5, 3, 4, 6, 9, 12, 16, 24, and 36 h post-dose. Samples were centrifuged immediately at 4°C for 10 min at 3,500 revolutions per minute, then separated and stored at −80°C for PK analysis.
A chiral liquid chromatography-mass spectrometry method was developed and validated for the simultaneous determination of (R)- and (S)-lansoprazole in human plasma, with the calibration curve of 500–3,000 ng/mL for both (R)- and (S)-lansoprazole (Sun et al., [2015]). […] The mass spectrometric analysis was performed using a QTrap 5500 mass spectrometer (AB Sciex, Concord, Ontario, Canada).
The PK parameter of Cmax (maximum concentration) and Tmax (the time to Cmax) were obtained directly from the observed data. Other PK parameters including t1/2 (elimination half-life), AUC^PK (area under the plasma concentration-time curve), Vd (volume of distribution), and CL (clearance) were calculated using non-compartmental methods with Phoenix WinNonlin version 6.4 (Pharsight Inc., CA, USA).

[1] = human, plasma, 20 mg, 20 mg iv, CYP2C19 PM (n = 6)
[2] = human, plasma, 20 mg, 20 mg iv, CYP2C19 hetEM (n = 9)
[3] = human, plasma, 20 mg, 20 mg iv, CYP2C19 homEM (n = 8)
[4] = human, plasma, 20 mg, 20 mg iv, Total (n = 23)
[5] = human, plasma, 30 mg, 30 mg iv, CYP2C19 PM (n = 7)
[6] = human, plasma, 30 mg, 30 mg iv, CYP2C19 hetEM (n = 10)
[7] = human, plasma, 30 mg, 30 mg iv, CYP2C19 homEM (n = 11)
[8] = human, plasma, 30 mg, 30 mg iv, Total (n = 28)
[9] = human, plasma, 20 mg iv, CYP2C19 PM (n = 6)

With Cc1c(OCC(F)(F)F)ccnc1C[S@@+]([O-])c1nc2ccccc2[nH]1 [dexlansoprazole] as the molecule, how does the “dose proportionality of Cmax and AUC^PK” value (20 vs 30 mg iv) read?
The value was “exhibit dose proportionality”.

And the “differences in PK parameters among ABCB1 genotypes” value (ABCB1 C3435T CC, CT, TT)?
The value was “no statistical significant differences”.

And the Vd [1]?
The Vd was 11 L.

And the clearance [1]?
The clearance was 34.7 mL/min.

What about the half-life [1] of the same molecule?
Its half-life is 3.65 h.

And the Vd [2]?
The Vd was 8.78 ± 1.35 L.

And the clearance [2]?
The clearance was 76.7 mL/min.

And the half-life [2]?
The half-life was 1.37 ± 0.24 h.

And the Vd [3]?
Its Vd is 10.4 ± 1.07 L.

And the clearance [3]?
Its clearance is 113 mL/min.

And the half-life [3]?
Its half-life is 1.18 ± 0.4 h.

And the Vd [4]?
Its Vd is 9.62 ± 1.45 L.

What about the clearance [4] of the same molecule?
Its clearance is 90.2 mL/min.

What about the half-life [4] of the same molecule?
The half-life was 1.41 ± 0.64 h.

And the Vd [5]?
Its Vd is 9.58 ± 1.56 L.

What about the clearance [5] of the same molecule?
Its clearance is 40.2 mL/min.

What about the half-life [5] of the same molecule?
The half-life was 3.96 ± 1.54 h.

What about the Vd [6] of the same molecule?
The Vd was 8.2 ± 1.73 L.

And the clearance [6]?
Its clearance is 61.5 mL/min.

What about the half-life [6] of the same molecule?
The half-life was 1.56 ± 0.15 h.

And the Vd [7]?
Its Vd is 10.7 ± 1.23 L.

And the clearance [7]?
Its clearance is 115 mL/min.

What about the half-life [7] of the same molecule?
The half-life was 1.14 ± 0.28 h.

And the Vd [8]?
The Vd was 9.78 ± 1.69 L.

What about the clearance [8] of the same molecule?
Its clearance is 78.2 mL/min.

And the half-life [8]?
The half-life was 2.17 ± 1.57 h.

And the AUC(0-inf) [9]?
Its AUC(0-inf) is 9600 ng·h/mL.

And the Cmax [9]?
Its Cmax is 1670 ng/mL.

And the AUC (human, plasma, 20 mg iv, CYP2C19 PM (n = 6), read-out: AUC0-tCon-t)?
The AUC was 9490 ng·h/mL.

What about the Tmax (human, plasma, 20 mg iv, CYP2C19 homEM (n = 8)) of the same molecule?
The Tmax was 1 h.

And the Tmax (human, plasma, 30 mg iv, Total (n = 28))?
Its Tmax is 1 h.

And the “AUC^PK for CYP2C19 PMs relative to CYP2C19 homEMs” value (same dose group)?
The value was 3- to 4 fold.

And the “t1/2 for CYP2C19 PMs relative to CYP2C19 homEMs” value (same dose group)?
The value was 3- to 4 fold.
